Source: ChEMBL document CHEMBL3885861, “Open TG-GATES”

Species: Rattus norvegicus
Assay: Open TG-GATES - Regimen: Single
Assay type: toxicity, organism-based, Sprague-Dawley
Parameters: regimen Single, gender Male, age 6 weeks
Conditions: in vivo, po, route gavage; for APTT / Bas / Eos / Fbg / Hb / Ht / Lym / MCV / Mono / PT / Plat / RBC / Ret / WBC / MCHC / Neu: tissue Blood; for ALP / ALT / AST / BUN / CRE / Ca / Cl / DBIL / GLC / IP / K / LDH / Na / PL / RALB / TBIL / TC / TG / TP / gamma-GTP: tissue Plasma
[1] = 0 mg/kg, 3 h, dose level Control
[2] = 0 mg/kg, 6 h, dose level Control
[3] = 0 mg/kg, 9 h, dose level Control
[4] = 0 mg/kg, 24 h, dose level Control

Molecule `O=C(O)c1cccnc1` [NIACIN] has an APTT [1] of 24 s, a Bas [1] of 0% and an Eos [1] of 0.8%. It also gave a Fbg [1] of 311.4 mg/dL, a Hb [1] of 13.5 g/dL and a Ht [1] of 40.1%. The Lym [1] was 81.2%, the MCV [1] was 63.7 fL and the Mono [1] was 2.2%. For the same molecule, the PT [1] was 16.4 s, the Plat [1] was 118.4 x10_4/uL and the RBC [1] was 630 x10_4/ul. For the same molecule, the Ret [1] was 7.9%, the WBC [1] was 80.3 x10_2/uL and the ALP [1] was 1666.4 IU/L. It also gave an ALT [1] of 44.8 IU/L, an AST [1] of 68.6 IU/L and a BUN [1] of 12.8 mg/dL. It also gave a CRE [1] of 0.1 mg/dL, a Ca [1] of 11 mg/dL and a Cl [1] of 102.6 meq/L. The DBIL [1] was 0 mg/dL, the GLC [1] was 182.4 mg/dL and the IP [1] was 9.1 mg/dL. For the same molecule, the K [1] was 4.2 meq/L, the LDH [1] was 165 IU/L and the Na [1] was 140.8 meq/L. It also gave a PL [1] of 138.6 mg/dL, an RALB [1] of 2.9 g/dL and a TBIL [1] of 0.002 mg/dL. It also gave a TC [1] of 80.8 mg/dL, a TG [1] of 48.2 mg/dL and a TP [1] of 5.7 g/dL. It also gave a gamma-GTP [1] of 1.4 IU/L, a Bas [2] of 0% and an Eos [2] of 0.8%. The Fbg [2] was 304 mg/dL, the Hb [2] was 13.6 g/dL and the Ht [2] was 40.5%. For the same molecule, the Lym [2] was 76.2%, the MCHC [2] was 33.7% and the MCV [2] was 62.9 fL. The Mono [2] was 2.8%, the PT [2] was 16.5 s and the Plat [2] was 116.7 x10_4/uL. It also gave an RBC [2] of 643.6 x10_4/ul, a Ret [2] of 7.8% and a WBC [2] of 105.2 x10_2/uL. For the same molecule, the ALP [2] was 1639.8 IU/L, the ALT [2] was 37.8 IU/L and the AST [2] was 72.2 IU/L. For the same molecule, the BUN [2] was 12.6 mg/dL, the CRE [2] was 0.1 mg/dL and the Ca [2] was 10.8 mg/dL. For the same molecule, the Cl [2] was 103.6 meq/L, the DBIL [2] was 0 mg/dL and the GLC [2] was 196.8 mg/dL. It also gave an IP [2] of 9.5 mg/dL, a K [2] of 4.3 meq/L and an LDH [2] of 211.2 IU/L. It also gave a Na [2] of 140.2 meq/L, a PL [2] of 141 mg/dL and an RALB [2] of 3 g/dL. The TBIL [2] was 0.008 mg/dL, the TC [2] was 79.2 mg/dL and the TG [2] was 68.4 mg/dL. The TP [2] was 5.5 g/dL, the gamma-GTP [2] was 1 IU/L and the Bas [3] was 0%. For the same molecule, the Eos [3] was 0.8%, the Fbg [3] was 312.8 mg/dL and the Hb [3] was 13 g/dL. The Ht [3] was 39.1%, the Lym [3] was 81.4% and the MCHC [3] was 33.3%. The MCV [3] was 62.3 fL, the Mono [3] was 2.6% and the Neu [3] was 13.8%. The Plat [3] was 119.2 x10_4/uL, the RBC [3] was 627.8 x10_4/ul and the Ret [3] was 8%. It also gave a WBC [3] of 95.1 x10_2/uL, an ALP [3] of 1434.4 IU/L and an ALT [3] of 38.4 IU/L. It also gave an AST [3] of 70.6 IU/L, a BUN [3] of 11.8 mg/dL and a CRE [3] of 0.2 mg/dL. It also gave a Ca [3] of 10.7 mg/dL, a Cl [3] of 104 meq/L and a DBIL [3] of 0.004 mg/dL. The GLC [3] was 185.4 mg/dL, the IP [3] was 9.4 mg/dL and the K [3] was 4.2 meq/L. The LDH [3] was 177.2 IU/L, the Na [3] was 140.4 meq/L and the PL [3] was 129 mg/dL. It also gave an RALB [3] of 3 g/dL, a TBIL [3] of 0.01 mg/dL and a TC [3] of 74.4 mg/dL. It also gave a TG [3] of 52.2 mg/dL, a TP [3] of 5.5 g/dL and a gamma-GTP [3] of 1.2 IU/L. It also gave a Bas [4] of 0%, an Eos [4] of 1% and a Fbg [4] of 327.2 mg/dL. The Hb [4] was 13.2 g/dL, the Ht [4] was 39.3% and the Lym [4] was 81.2%. It also gave an MCHC [4] of 33.6%, an MCV [4] of 63.3 fL and a Mono [4] of 2.6%. It also gave a Neu [4] of 14%, a PT [4] of 16.1 s and a Plat [4] of 120.2 x10_4/uL. The RBC [4] was 621.2 x10_4/ul, the Ret [4] was 7.5% and the WBC [4] was 115.4 x10_2/uL. The ALP [4] was 1844 IU/L, the ALT [4] was 45 IU/L and the AST [4] was 70 IU/L. The BUN [4] was 15.6 mg/dL, the CRE [4] was 0.2 mg/dL and the Ca [4] was 10.6 mg/dL. It also gave a Cl [4] of 104.2 meq/L, a DBIL [4] of 0 mg/dL and a GLC [4] of 197.2 mg/dL. The IP [4] was 8.2 mg/dL, the K [4] was 4.3 meq/L and the LDH [4] was 200 IU/L. It also gave a Na [4] of 140.4 meq/L, a PL [4] of 147.6 mg/dL and an RALB [4] of 3 g/dL. The TBIL [4] was 0.002 mg/dL, the TC [4] was 74.6 mg/dL and the TG [4] was 104 mg/dL. For the same molecule, the TP [4] was 5.5 g/dL, the gamma-GTP [4] was 1.4 IU/L and the APTT (100 mg/kg, 3 h, dose level Low) was 22.6 s.
